Test results taken from PMC11137182, “Selective and brain-penetrant ACSS2 inhibitors target breast cancer brain metastatic cells” (Frontiers in Pharmacology, 2024).
Read-outs that look alike come from different tables or passages of the source.

Key:
MDA-MB-231BR cells = assay: Clonogenic survival assay; type: cell-based; settings: 100 μM, 48 h treatment, 10 days growth
Procedure: Triple-negative brain trophic cells MDA-MB-231BR and 4T1BR cells were a kind gift from Dr. Patricia Steeg (Center for Cancer Research, National Cancer Institute) ([Achrol et al., 2019]). Both cell lines were cultured in DMEM supplemented with 10% fetal bovine serum (FBS), 5% 10,000 Units/mL Penicillin-10,000 μg/mL Streptomycin, and 5% 200 mM L-Glutamine. For crystal violet staining, 5 × 10^4 cells were plated and subjected to the treatments as described in the individual figures and then stained with 0.5% crystal violet prepared in a 1:1 methanol-water solution followed by PBS washes. ACSS2 inhibitors were dissolved in 100% ultra-pure DMSO.
To assess clonogenic survival, 1 × 10^5 cells were seeded into a 6-well plate until 70%–80% confluency and treated for 48 h with analogs at 100 uM (unless otherwise stated in the figure legend). After 48 h, cells were trypsinized and counted using hemocytomer, and 1 × 10^4 cells per treatment were plated into a 6-well plate with fresh culture medium and allowed to grow for 10 days. Following 10-day incubation, cells were washed twice with PBS, stained with crystal violet for 30 min, and washed with dH2O twice. Colonies >50mircons were counted. For crystal violet staining, 0.5% crystal violet was prepared in a 1:1 methanol-water solution.

[1] = Human liver microsome stability; settings: for half-life: Human Liver Microsome Stability T1/2, human liver microsomes
ACSS2 [2] = target: T1, ACSS2 (Homo sapiens, UniProt Q9NR19); assay: SPR binding to immobilized ACSS2; settings: mean; for koff / kon: 1:1 binding model
T1 construct: His-tag (N); His-tag (C); made in house; host or cells: E. coli BL21 (DE3) RIL
Procedure: Overproduction of ACSS2 was achieved using a prokaryotic expression system. […] The bacterial expressions were then spun down, the supernatant discarded, and the pellets resuspended in 50 mM Tris HCl pH8.0, 800 mM NaCl, 5 mM Imidazole, 2 mM MgCl2, 10% Glycerol, 0.1 mg/mL Lysozyme, 1 mM Protease inhibitor (PMSF). After the cells were lysed via sonication, the sample was subjected to ultracentrifugation, and the clarified lysate was applied to a 5 mL Talon cobalt resin affinity column (Clonetech Laboratories, Mountain View, CA). The bound protein was washed with 300 mL wash buffer 1 (20 mM Tris HCl pH8.0, 800 mM NaCl, 15 mM Imidazole, 5 mM MgCl2, 10% Glycerol, 0.1% CHAPS) and 300 mL wash buffer 2 (20 mM Tris HCl pH8.0, 400 mM NaCl, 18 mM Imidazole, 5 mM MgCl2, 10% Glycerol) prior elution with 20 mM Tris HCl pH8.0, 400 mM NaCl, 300 mM Imidazole, 2 mM MgCl2, 5% Glycerol. Eluted ACSS2 was then dialyzed overnight into 20 mM Tris HCl pH8.0, 150 mM NaCl, 5% Glycerol, concentrated and applied to a Superdex S-200 (16/600) using the same buffer without Glycerol. ACSS2 fractions were pooled, concentrated to 3 mg/mL, aliquoted, and stored at −80°C. hACSS1 was obtained from a commercial vendor (www.mybiosource.com).
All binding assays were performed on a ProteOn XPR36 SPR Protein Interaction Array System (Bio-Rad Laboratories, Hercules, CA, United States). The instrument temperature was set at 25°C for all kinetic analyses. ProteOn GLH sensor chips were preconditioned with two short pulses each (10 s) of 50 mM NaOH, 100 mM HCl, and 0.5% sodium […]. Then, the system was equilibrated with running buffer (1x PBS pH 7.4, 3% DMSO, and 0.005% polysorbate 20). The surface of a GLH sensor chip was activated with a 1:100 dilution of a 1:1 mixture of 1-ethyl-3-(3-dimethylaminopropyl) carbodiimide hydrochloride (0.2 M) and sulfo-N-hydroxysuccinimide (0.05 M). Immediately after chip activation, the human ACSS2 or hACSS1 proteins were prepared at a concentration of 10 μg/mL in 10 mM sodium acetate, pH 5.5, and injected across ligand flow channels for 5 min at a flow rate of 30 μL/min. Then, after unreacted protein had been washed out, excess active ester groups on the sensor surface were capped by a 5 min injection of 1M ethanolamine HCl (pH 8.0) at a flow rate of 5 μL/min. A reference surface was similarly created by immobilizing a nonspecific protein (IgG b12 anti-HIV-1 gp120; was obtained through the NIH AIDS Reagent Program, Division of AIDS, NIAID, NIH: Anti-HIV-1 gp120 Monoclonal (IgG1 b12) from Dr. Dennis Burton and Carlos Barbas) and was used as a background to correct nonspecific binding. […] Data were analyzed using the ProteOn Manager Software version 3.0 (Bio-Rad). The responses from the reference flow cell were subtracted to account for the nonspecific binding and injection artifacts. Experimental data were fitted to a simple 1:1 binding model. Experiments were performed in triplicate to detect kinetic and equilibrium dissociation constants (KD).

MDR1 (P-gp) = assay: Bi-directional permeability across MDR1-MDCK cell monolayer (BBB assay); type: in vitro ADME, canine; settings: dog; MDR1-MDCK I monolayer, A to B
Source text: This assay provides the apparent permeability coefficient (Papp), efflux ratio, and % recovery to assess compound permeation.

ACSS2 [3] = target: T1, ACSS2; assay: Fluorescence polarization-based ACSS2 biochemical assay (ATP to AMP conversion); settings: 100 nM ACSS2, triplicate, ± SD; read-out: IC50, inhibition of ATP to AMP conversion of ACSS2
Procedure: ACSS2 enzyme activity was measured using the TranScreener AMP^2/GMP^2 Assay Kit—FP Readout assay (BellBrook Labs). The assay was performed in white, opaque, 96-well plates. […] ACSS2 was used in assay buffer (30 mM HEPES, pH 7.4, 140 mM NaCl, 2 mM MgCl2, 5 mM sodium acetate, 2 mM DTT, 0.05% CHAPS). Substrate mix was added, followed by a 60-min incubation. Final substrate concentrations were 5 mM acetate, 50 μM ATP, and 5 μM CoA. After incubation, conjugated AMP antibody and AMP tracer were added according to the methods described by BellBrook Labs. After 30 min, the FP signal was measured using a Tecan Spark multimode microplate reader. In the analysis, data were normalized to represent the percentage inhibition of ATPase activity.

FASN = assay: Immunoblot of FASN protein levels; type: cell-based; settings: MDA-MB-231BR cells, 24 h
Procedure: Immunoblotting protocols have been previously described. Briefly, cell lysates from one to five x 10^6 cells were prepared in radioimmune precipitation assay buffer (150 mM NaCl, 1% NP40, 0.5% DOC, 50 mM Tris HCL at pH 8, 0.1% SDS, 10% glycerol, 5 mM EDTA, 20 mM NaF, and 1 mM Na3VO4) supplemented with 1 μg/mL each of pepstatin, leupeptin, aprotinin, and 200 μg/mL PMSF. Lysates were cleared by centrifugation at 16,000 x g for 15 min at 4°C and analyzed by SDS-PAGE and autoradiography with chemiluminescence. Proteins were analyzed by immunoblotting using primary antibodies indicated above.

[4] = 25°C, Langmuir isotherm equilibrium fit, n=3, read-out: KD equilibrium
[5] = global fit, n=3, read-out: KD kinetic/global

T1 sequence (Q9NR19 whole entry): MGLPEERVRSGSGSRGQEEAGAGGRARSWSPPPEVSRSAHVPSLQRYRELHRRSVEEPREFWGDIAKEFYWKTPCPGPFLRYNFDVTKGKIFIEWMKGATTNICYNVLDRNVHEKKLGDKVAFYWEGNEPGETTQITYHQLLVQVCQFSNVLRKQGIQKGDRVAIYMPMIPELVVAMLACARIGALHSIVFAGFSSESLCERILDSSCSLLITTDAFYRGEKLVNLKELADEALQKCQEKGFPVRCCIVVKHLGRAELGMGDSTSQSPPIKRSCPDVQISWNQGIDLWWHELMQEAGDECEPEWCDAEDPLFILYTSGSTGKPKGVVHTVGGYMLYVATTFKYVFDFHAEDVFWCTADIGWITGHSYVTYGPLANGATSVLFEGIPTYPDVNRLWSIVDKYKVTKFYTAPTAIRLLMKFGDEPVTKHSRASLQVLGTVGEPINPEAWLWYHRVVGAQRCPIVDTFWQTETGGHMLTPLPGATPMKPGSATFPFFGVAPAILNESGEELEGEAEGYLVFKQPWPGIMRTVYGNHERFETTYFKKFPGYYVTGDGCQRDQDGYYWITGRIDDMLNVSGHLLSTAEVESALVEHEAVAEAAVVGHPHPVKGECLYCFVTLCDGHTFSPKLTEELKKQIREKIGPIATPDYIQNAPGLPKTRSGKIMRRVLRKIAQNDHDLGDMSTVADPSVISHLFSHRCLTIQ

O=C(CCN1CCCC(c2ccccc2)(c2ccccc2)C1)NC1CC1 [AD-2441]
clonogenic survival (MDA-MB-231BR cells): significantly reduce clonogenic survival

O=C(O)Cc1ccccc1Nc1c(Cl)cccc1Cl [Diclofenac, reference compound]
Remaining (T=60min) ([1]; human liver microsomes): 0.00044
Remaining (NCF=60min) ([1]; human liver microsomes): 0.8763
CLint scaled ([1]; human, liver microsomes): 236 mL/min/kg
microsomal CLint ([1]; human, liver microsomes): 262 µL/min/mg
half-life ([1]; human, liver microsomes): 318 s

Cc1cccn2c(CC(=O)NCCC(c3ccccc3)c3ccco3)cnc12 (stereo not shown) [AD-3766]
koff (ACSS2 [2]; n=3, read-out: koff): 0.359 s⁻¹
kon (ACSS2 [2]; n=3, read-out: kon): 5010 M⁻¹ s⁻¹
Kd (ACSS2 [2]; [4]): 70.6 µM
Kd (ACSS2 [2]; [5]): 77.6 µM
clonogenic survival (MDA-MB-231BR cells): significant reduction in clonogenic survival
Remaining (T=60min) ([1]; human liver microsomes): 0.0005
Remaining (NCF=60min) ([1]; human liver microsomes): 0.9639
CLint scaled ([1]; human, liver microsomes): 1360 mL/min/kg
Human Liver Microsome Stability T1/2 ([1]; human, liver microsomes): 54 s
microsomal CLint ([1]; human, liver microsomes): 1520 µL/min/mg
half-life ([1]; human, liver microsomes): 54.8 s

COCCc1ccc(OCC(O)CNC(C)C)cc1 (stereo not shown) [Metoprolol, reference compound]
Papp A→B (MDR1 (P-gp)): 12.9 ×10⁻⁶ cm/s

C[C@H](N)C(=O)N1CCCC(c2ccccc2)(c2ccccc2)C1 [AD-1363]
clonogenic survival (MDA-MB-231BR cells): significant reduction in clonogenic survival

CN1CCC(O)(C(=O)NCCc2ccccc2Oc2ccccc2)CC1 [AD-7346]
koff (ACSS2 [2]; n=3, read-out: koff): 0.399 s⁻¹
kon (ACSS2 [2]; n=3, read-out: kon): 10100 M⁻¹ s⁻¹
Kd (ACSS2 [2]; [4]): 39.8 µM
Kd (ACSS2 [2]; [5]): 49.4 µM
IC50 (ACSS2 [3]): 2.03 ± 0.21 µM

C[C@]12CC[C@H]3[C@@H](CCC4=CC(=O)CC[C@@]43C)[C@@H]1CC[C@@H]2O [Testosterone, reference compound]
Remaining (T=60min) ([1]; human liver microsomes): 0.06959
Remaining (NCF=60min) ([1]; human liver microsomes): 0.8976
CLint(liver) ([1]; human liver microsomes, scaled): 80.3781 mL/min/kg

COCCNC(=O)Nc1ccc2nc(-c3cccs3)c(-c3cccs3)nc2c1 [VY-3-249, reference compound]
koff (ACSS2 [2]; n=3): 0.105 s⁻¹
kon (ACSS2 [2]; n=3): 1800 M⁻¹ s⁻¹
Kd (ACSS2 [2]; [4]): 53.2 µM
Kd (ACSS2 [2]; [5]): 66 µM
protein levels of FASN (FASN): reduced protein levels of FASN
clonogenic survival (MDA-MB-231BR cells): significantly reduce clonogenic survival
IC50 (ACSS2 [3]): 1.2 ± 0.49 µM
